Like-named read-outs stand apart in the source and are kept apart here.
What was measured:
[1] = biological target: T1, SARS-CoV-2 NSP3 macrodomain (Mac1) (Severe acute respiratory syndrome coronavirus 2, UniProt P0DTD1); format: binding; conditions: for PanDDA run, TFA/DMSO background map: 1-BDC / PanDDA run, TFA/DMSO background map: Hit: crystal soak 10 mM; for Number of isomers bound: ligand modeling, Mac1 crystal soak; for Isomers modeled: stereoisomer(s) modeled as bound, residues 201/202/203
[2] = biological target: T1, SARS-CoV-2 NSP3 macrodomain (Mac1); test: biochemical; format: binding; conditions: for Average % competition: Single dose, concentration 200 μM
[3] = compound at 200 μM, mean of three to four technical replicates, read-out: % competition at 200 μM (preliminary HTRF screen)
[4] = SARS CoV-2 macrodomain HTRF assay
[5] = SARS CoV-2 macrodomain HTRF assay, dose-response, read-out: IC50
[6] = SARS CoV-2 macrodomain HTRF assay, single dose concentration 200 μM, read-out: Average % competition

| SMILES | PanDDA run, TFA/DMSO background map: 1-BDC [1] | PanDDA run, TFA/DMSO background map: Hit [1] | Number of isomers bound [1] | Average % competition [2] [%] | inhibition at 200 µM [2, 3] [%] | further results |
| --- | --- | --- | --- | --- | --- | --- |
| OCC(CC1CCOC1)Nc1ncnc2[nH]ccc12 (centres unmarked) [AVI-3665] | 0.15 | TRUE | 1 | 11 | 11 | – |
| CCC(O)[C@H]1CCCN1c1ncnc2[nH]ccc12 (some centres unmarked) [AVI-3666] | – | – | 1 | – | – | Ligand efficiency (binding enery per heavy atom) [2, 4]: 0.34 |
| CCC(Nc1ncnc2[nH]ccc12)C(C)(C)O (centres unmarked) [AVI-3667] | 0.07 | TRUE | 1 | 51 | 51 | – |
| CC(c1ccccc1)C(CO)Nc1ncnc2[nH]ccc12 (centres unmarked) [AVI-3669] | 0.09 | TRUE | 1 | – | – | Ligand efficiency ([2]; Binding energy per heavy atom): 0.33; fold more potent / increased binding affinity than AVI-313 parent ([2]; HTRF IC50 compared with AVI-313): > 10 fold; Ki [2, 4]: 8.1 µM; Ligand efficiency (binding enery per heavy atom) [2, 4]: 0.33; IC50 ([2]; read-out: IC50 (confirmatory HTRF dose-response screen)): 8.7 µM |
| O=C(O)C(F)(F)F.OCC1(Nc2ncnc3[nH]ccc23)CCC1 [AVI-3670] | 0.12 | TRUE | 1 | – | – | Ki [2, 4]: 36 µM; Ligand efficiency (binding enery per heavy atom) [2, 4]: 0.38; IC50 [2, 5]: 39 µM |
| CN(C)CC(CO)Nc1ncnc2[nH]ccc12 (centres unmarked) [AVI-3671] | 0.13 | TRUE | 1 | <10 | < 10 | – |
| OCC(Cc1nccs1)Nc1ncnc2[nH]ccc12 (centres unmarked) [AVI-3673] | 0.15 | TRUE | 1 | 38 | 38 | – |
| Cc1ccccc1CC(CO)Nc1ncnc2[nH]ccc12 (centres unmarked) [AVI-3674] | 0.15 | TRUE | 1 | 32 | 32 | – |
| OCC(CN1CCCCC1)Nc1ncnc2[nH]ccc12 (centres unmarked) [AVI-3677] | 0.18 | TRUE | 1 | <10 | < 10 | – |
| OCC(Nc1ncnc2[nH]ccc12)C1CCOC1 (centres unmarked) [AVI-3679] | 0.11 | TRUE | 1 | 35 | 35 | – |
| O=C(O)C(F)(F)F.OCC12CC(CN1c1ncnc3[nH]ccc13)C2 [AVI-3681] | 0.12 | TRUE | 1 | – | 54 | inhibition at 200 µM [2, 6]: 54% |
| Cc1ccc(CC(CO)Nc2ncnc3[nH]ccc23)cc1 (centres unmarked) [AVI-3683] | – | – | 2 | 14 | 14 | Isomers modeled [1]: S,R |
| Cc1ccc(CC(CO)Nc2ncnc3[nH]ccc23)cc1C (centres unmarked) [AVI-3684] | – | – | 2 | <10 | < 10 | Isomers modeled [1]: R,S |
| OCC1CCCN1c1ncnc2[nH]ccc12 (centres unmarked) [AVI-3685] | – | – | 1 | – | 48 | fold decrease in affinity relative to AVI-607 ([2]; HTRF): > 20 fold; inhibition at 200 µM [2, 6]: 47% |
| OCC(Cc1ccc(I)cc1)Nc1ncnc2[nH]ccc12 (centres unmarked) [AVI-3686] | 0.19 | TRUE | 2 | <10 | < 10 | Isomers modeled [1]: S,R |
| O=C(O)C(F)(F)F.OCC1(Nc2ncnc3[nH]ccc23)CC1 [AVI-3688] | 0.17 | TRUE | 1 | 72 | 72 | – |
| OCC(CC1CCCCC1)Nc1ncnc2[nH]ccc12 (centres unmarked) [AVI-3690] | – | – | 1 | 66 | 66 | – |
| OCC(CC1CCCC1)Nc1ncnc2[nH]ccc12 (centres unmarked) [AVI-3691] | 0.1 | TRUE | 1 | 52 | 53 | – |
| O=C(O)C(F)(F)F.OCC1(Nc2ncnc3[nH]ccc23)CCCC1 [AVI-3692] | 0.11 | TRUE | 1 | – | – | Ki [2, 4]: 46 µM; Ligand efficiency (binding enery per heavy atom) [2, 4]: 0.35; IC50 [2, 5]: 49 µM |
| OCC(Nc1ncnc2[nH]ccc12)C1CCc2ccccc21 (centres unmarked) [AVI-3693] | – | – | 2 | 78 | 78 | Isomers modeled [1]: RR,SR |

| SMILES | PanDDA run, TFA/DMSO background map: 1-BDC [1] | PanDDA run, TFA/DMSO background map: Hit [1] | Number of isomers bound [1] | Average % competition [2] [%] | inhibition at 200 µM [2, 3] [%] | further results |
| --- | --- | --- | --- | --- | --- | --- |
| CCC(CC)(CO)Nc1ncnc2[nH]ccc12 [AVI-3695] | – | – | 1 | – | – | Ki [2, 4]: 37 µM; Ligand efficiency (binding enery per heavy atom) [2, 4]: 0.36; IC50 [2, 5]: 40 µM |
| OCC(Cc1ccccn1)Nc1ncnc2[nH]ccc12 (centres unmarked) [AVI-3696] | – | – | 2 | 34 | 34 | Isomers modeled [1]: R,S |
| CCC(C)(CO)Nc1ncnc2[nH]ccc12 (centres unmarked) [AVI-3697] | – | – | 1 | – | – | Ki [2, 4]: 34 µM; Ligand efficiency (binding enery per heavy atom) [2, 4]: 0.39; IC50 [2, 5]: 36 µM |
| OCC(O)C1CCCN1c1ncnc2[nH]ccc12 (centres unmarked) [AVI-3701] | 0.16 | TRUE | 1 | – | 54 | inhibition at 200 µM [2, 6]: 54% |
| O=C(O)C(F)(F)F.OC[C@H]1CC2(CN1c1ncnc3[nH]ccc13)OCCO2 [AVI-3702] | 0.13 | TRUE | 1 | – | 17 | inhibition at 200 µM [2, 6]: 17% |
| OCC(Cc1cncs1)Nc1ncnc2[nH]ccc12 (centres unmarked) [AVI-3703] | 0.1 | TRUE | 1 | 28 | 28 | – |
| CC1(C)C[C@@H](CO)N(c2ncnc3[nH]ccc23)C1.O=C(O)C(F)(F)F [AVI-3704] | – | – | 1 | – | – | Ki [2, 4]: 27 µM; Ligand efficiency (binding enery per heavy atom) [2, 4]: 0.35; IC50 [2, 5]: 29 µM |
| OCC(Cc1ccoc1)Nc1ncnc2[nH]ccc12 (centres unmarked) [AVI-3705] | 0.14 | TRUE | 1 | 64 | 64 | – |
| OCC1CC2(CCOCC2)CN1c1ncnc2[nH]ccc12 (centres unmarked) [AVI-3707] | 0.15 | TRUE | 1 | – | 39 | inhibition at 200 µM [2, 6]: 39% |
| OCC1CC2(CCCC2)CN1c1ncnc2[nH]ccc12 (centres unmarked) [AVI-3708] | – | – | 1 | – | – | Ki [2, 4]: 25 µM; Ligand efficiency (binding enery per heavy atom) [2, 4]: 0.32; IC50 [2, 5]: 27 µM |
| OCC(COCc1ccccc1)Nc1ncnc2[nH]ccc12 (centres unmarked) [AVI-3709] | 0.16 | TRUE | 2 | 29 | 29 | Isomers modeled [1]: S,R |
| O=C(O)C(F)(F)F.OC[C@@H]1CC2(CC2)CN1c1ncnc2[nH]ccc12 [AVI-3710] | 0.23 | TRUE | 1 | – | 57 | Isomers modeled [1]: S,S; inhibition at 200 µM [2, 6]: 57% |
| OCC(Cc1cccs1)Nc1ncnc2[nH]ccc12 (centres unmarked) [AVI-3711] | 0.16 | TRUE | 1 | 63 | 63 | – |
| OCC1C2CCC(C2)N1c1ncnc2[nH]ccc12 (centres unmarked) [AVI-3713] | – | – | 1 | – | – | Isomers modeled [1]: SSR; Ki [2, 4]: 25 µM; Ligand efficiency (binding enery per heavy atom) [2, 4]: 0.35; IC50 [2, 5]: 27 µM |
| OCC(Nc1ncnc2[nH]ccc12)c1ccccc1 (centres unmarked) [AVI-3715] | 0.09 | TRUE | 1 | 54 | 54 | – |
| OCC1COCCN1c1ncnc2[nH]ccc12 (centres unmarked) [AVI-3717] | – | – | 2 | – | 62 | Isomers modeled [1]: R,S; inhibition at 200 µM [2, 6]: 62% |
| CC(C)(C)C1CCC(CO)N(c2ncnc3[nH]ccc23)C1 (centres unmarked) [AVI-3719] | – | – | 1 | – | 36 | inhibition at 200 µM [2, 6]: 36% |
| OC[C@@H]1C[C@@H]2CCC[C@@H]2N1c1ncnc2[nH]ccc12 [AVI-3720] | – | – | 1 | – | – | Isomers modeled [1]: SSS; Ki [2, 4]: 26 µM; Ligand efficiency (binding enery per heavy atom) [2, 4]: 0.33; IC50 [2, 5]: 28 µM |
| CN1CCN(c2ncnc3[nH]ccc23)C(CO)C1 (centres unmarked) [AVI-3721] | – | – | 1 | – | 11 | Isomers modeled [1]: R,R; inhibition at 200 µM [2, 6]: 11% |
| CC(C)(C)[C@@H]1CCN(c2ncnc3[nH]ccc23)[C@H](CO)C1 [AVI-3722] | – | – | 1 | – | 22 | inhibition at 200 µM [2, 6]: 22% |
